Laboratory results published in US20090291908A1, “Use of thiophoshonoformic acid and nrtis to treat viral infections” (priority 2005, published 2009).

How the values were obtained:
[1] = system: Thiovir™ resistant HIVLAI, selection 2 (L214F, M184I); test: IC50 by MAGI assay on selected resistant virus; assay type: cell-based, HIV-1; settings: for Susceptibility Index (IC50 Resistant Virus/IC50 Purent Virus): Drug Resistant Virus: Thiovir ™ (Selection # 2), MAGI assay
Protocol: (§1) Thiovir™ and foscarnet resistant viruses were selected by in vitro passage of HIVLAI on H9 cells in the presence of escalating concentrations of drug. Resistant virus was evaluated for phenotypic changes by IC50 determination using the MAGI assay. Furthermore, the viral DNA was sequenced to determine genotypic variations (Table 4). Two independent 13 to 15 round selections were performed.

[2] = system: Thiovir™ resistant HIVLAI, selection 1 (L214F, R172K, Q174R); test: IC50 by MAGI assay on selected resistant virus; assay type: cell-based, HIV-1; settings: for Susceptibility Index (IC50 Resistant Virus/IC50 Purent Virus): Drug Resistant Virus: Thiovir ™ (Selection # 1), MAGI assay
Protocol: as §1

[3] = system: Foscarnet resistant HIVLAI, selection 1 (L214F, R172K); test: IC50 by MAGI assay on selected resistant virus; assay type: cell-based, HIV-1; settings: Drug Resistant Virus: Foscarnet (Selection # 1)
Protocol: as §1

[4] = system: Foscarnet resistant HIVLAI, selection 2 (L214F, M184I); test: IC50 by MAGI assay on selected resistant virus; assay type: cell-based, HIV-1; settings: Drug Resistant Virus: Foscarnet (Selection # 2)
Protocol: as §1

[5] = system: panel of NRTI and NNRTI resistant HIV-1; test: PhenoSense reporter assay, panel of ten resistant viruses; assay type: cell-based; settings: FIG. 2; for susceptibility of the resistant virus panel: all viruses of the panel
Excerpt: Antiviral activity also can be quantitatively measured using a PhenoSense™ assay. A PhenoSense™ assay uses nucleic acid amplification to derive HIV protease and reverse transcriptase nucleic acid sequences from plasma. The patient-derived sequences are incorporated into a viral vector to construct a resistance test vector (RTV). The viral vector also contains an indicator or reporter gene (e.g., green fluorescent protein, luciferase, beta galactosidase, etc.) inserted within a deleted portion of the HIV envelope gene. The reporter gene is under the control of a strong promoter (e.g., a CMV promoter) in the RTV.
The PhenoSense™ assay is performed by introducing the RTV nucleic acid sequence into host cells, collecting virus particles after transfection, and using the virus particles to infect target cells. Drug susceptibility is measured by comparing reporter gene activity produced in the presence and absence of drugs. The presence of drug can be one or more different concentrations, for example, several titrated concentrations.
The data are analyzed by plotting the percent inhibition of viral replication, as measured by reporter gene activity, against the log10 concentration of drug for the patient virus (in the RTV) and a drug sensitive reference virus. The resulting drug susceptibility curve is used to calculate the concentration of drug required to inhibit viral replication by 50% (IC50). A shift in the patient inhibition curve toward a higher drug concentration as compared to the curve of the drug-sensitive reference virus is interpreted as reduced drug susceptibility. A shift in the patient inhibition curve toward a lower drug concentration as compared to the curve of the drug-sensitive reference virus is interpreted as increased drug susceptibility. PhenoSense™ can be conducted by a commercial service provider, for example, Monogram Biosciences, South San Francisco, Calif.
All Phenosense™ assays were performed at Virologic, Inc as described (Petropoulos, et al. (2000) Antimicrob Agents Chemother 44:920). Briefly, the envelope gene is deleted from wild type HIV-1 and luciferase reporter inserted under control of a strong CMV promoter. Viral stocks are produced by co-transfection of producer cells with the recombinant viral DNA and a vector that expresses envelope protein from an amphotropic murine leukemia virus. Pseudotyped viral particles are replication defective and only undergo one round of infection. Expression of the luciferase gene in target cells is dependent on a single round of infection.
The activity of Thiovir™ was evaluated against viruses that are resistant to common NRTI and NNRTI drugs using the Phenosense™ reporter system (Petropoulos, supra). […]

HIV in H9 T-cells = assay type: cell-based; settings: p24 assay; combined with tenofovir at a ratio of 1:1
Protocol: Reduction in viral titer also can be measured using an ELISA capture assay with antibodies specific for viral capsid proteins (e.g., HIV-1 p24).
H9 T-cells were pretreated with polybrene at 4 μg/ml and drug at indicated concentrations in RPMI plus 10% fetal calf serum for 30 minutes prior to adsorption of virus at multiplicities of infection (MOI) 0.1 for 2 hours at 37° C., 5% CO2. Cells were washed 3 times with PBS and resuspended in fresh media plus drug. Incubation at 37° C., 5% CO2 was continued for 4-6 days and cells centrifuged at 1200 rpm. Supernatants were removed and p24 detected by quantitative antigen capture kit (Zeptometrix, Buffalo, N.Y.).

[6] = system: Thiovir™ and foscarnet selected virus; test: Susceptibility of selected viruses; assay type: cell-based, HIV-1; settings: both Thiovir™ and foscarnet selected virus
Protocol: Wild type and antiviral drug resistant HIV were tested for sensitivity to anti-viral drugs using either MAGI assay or Phenosense™ assay. The 50% inhibitory concentration, IC50, was then determined from a plot of percent inhibition vs. log10 drug concentration.
MAGI cells were seeded at approximately 5×10^4 cells per well in a 12 well plate in DMEM with 10% fetal calf serum and incubated overnight at 37° C. in 5% CO2. Drug was added at various concentrations and incubated for approximately 30 to 60 minutes. Cells were infected with either HIV-1 HXB2 or HIV-1IIIB in the presence of either 4 microg/ml polybrene or 60 microg/ml dextran. Infection was continued for 48 hours and cells fixed using 0.05% glutaraldehyde. […] Blue nuclei were counted under a microscope at 100× magnification.
To select for drug resistant variants, 1×10^6H9 cells were pretreated for two hours at three concentrations of AZT (0.5, 1 and 2 μM), Nevirapine (0.5, 1 and 2 μM), foscarnet (25 and 50 μM) and Thiovir™ (25 and 50 μM) prior to infection at MOI of 0.1 of HIVIIIB or HIVLAI. […] Virus was passaged at increasing drug concentration and monitored for increase in IC50. […]
Thiovir™ and foscarnet resistant viruses were selected by in vitro passage of HIVLAI on H9 cells in the presence of escalating concentrations of drug. Resistant virus was evaluated for phenotypic changes by IC50 determination using the MAGI assay. […]

Structure (SMILES) | Susceptibility Index (IC50 Resistant Virus/IC50 Purent Virus) [1] | Susceptibility Index (IC50 Resistant Virus/IC50 Purent Virus) [2] | Susceptibility Index (IC50 Resistant Virus/IC50 Purent Virus) [3] | Susceptibility Index (IC50 Resistant Virus/IC50 Purent Virus) [4] | susceptibility of the resistant virus panel [5] | susceptibility of the majority of the panel viruses [5] | drug interaction in words, combined with tenofovir (HIV in H9 T-cells) | susceptibility of selected virus in words [6] | resistance of selected virus ([1]; second Thiovir™ selected resistant virus) [fold] | resistance of selected virus ([2]; first Thiovir™ selected resistant virus) [fold]
O=C(O)P(=O)(O)O [Foscarnet, phosphonoformic acid] | 85 | 4.8 | 4.1 | 103 | sensitive | hypersensitive | additive to antagonistic | – | – | –
Cc1ccnc2c1NC(=O)c1cccnc1N2C1CC1 [Nevirapine] | – | 1.05 | 1.06 | – | – | – | – | sensitive | – | –
O=C(O)P(O)(O)=S [Thiovir™, thiophosphonoformic acid] | 113 | 4.8 | 6.3 | 100 | sensitive | hypersensitive | synergy | – | 85 | 4.8
Cc1cn([C@H]2C[C@H](N=[N+]=[N-])[C@@H](CO)O2)c(=O)[nH]c1=O [Zidovudine, Azidothymidine] | 0.35 | 0.22 | 0.87 | 0.58 | – | – | – | – | – | –
